This passage reports IC50 results from patent US20110118262A1, “Pyrrolidinyl and Piperidinyl Compounds Useful as NHE-1 Inhibitiors” (BOEHRINGER INGELHEIM INTERNATIONAL GMBH, priority 2008, published 2011).

In general, IC50 refers to the concentration needed to halve the response being measured.

This test concerns the target T1, NHE-1 (Homo sapiens, UniProt P19634).
T1 construct: endogenous in cells; host or cells: HT-29
Kind of test: Evaluation of NHE-1 Inhibition (pHi) in HT-29 cells. In kind it is cell-based. The following applies: BCECF dye, 50% inhibition of the intracellular pH recovery, read-out: NHE1 HT29 pHi IC50. A digest of the protocol:
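Intracellular pH measured with BCECF in HT-29 cells after 24 h culture. Cells dye-loaded 30 min at 37° C, then acid-loaded with NH4Cl-containing choline buffer (pH 7.5) for 30 min at RT. Compounds added on an FDSS6000 fluorescence reader.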

Structures are written as SMILES.

T1 sequence (P19634 whole entry): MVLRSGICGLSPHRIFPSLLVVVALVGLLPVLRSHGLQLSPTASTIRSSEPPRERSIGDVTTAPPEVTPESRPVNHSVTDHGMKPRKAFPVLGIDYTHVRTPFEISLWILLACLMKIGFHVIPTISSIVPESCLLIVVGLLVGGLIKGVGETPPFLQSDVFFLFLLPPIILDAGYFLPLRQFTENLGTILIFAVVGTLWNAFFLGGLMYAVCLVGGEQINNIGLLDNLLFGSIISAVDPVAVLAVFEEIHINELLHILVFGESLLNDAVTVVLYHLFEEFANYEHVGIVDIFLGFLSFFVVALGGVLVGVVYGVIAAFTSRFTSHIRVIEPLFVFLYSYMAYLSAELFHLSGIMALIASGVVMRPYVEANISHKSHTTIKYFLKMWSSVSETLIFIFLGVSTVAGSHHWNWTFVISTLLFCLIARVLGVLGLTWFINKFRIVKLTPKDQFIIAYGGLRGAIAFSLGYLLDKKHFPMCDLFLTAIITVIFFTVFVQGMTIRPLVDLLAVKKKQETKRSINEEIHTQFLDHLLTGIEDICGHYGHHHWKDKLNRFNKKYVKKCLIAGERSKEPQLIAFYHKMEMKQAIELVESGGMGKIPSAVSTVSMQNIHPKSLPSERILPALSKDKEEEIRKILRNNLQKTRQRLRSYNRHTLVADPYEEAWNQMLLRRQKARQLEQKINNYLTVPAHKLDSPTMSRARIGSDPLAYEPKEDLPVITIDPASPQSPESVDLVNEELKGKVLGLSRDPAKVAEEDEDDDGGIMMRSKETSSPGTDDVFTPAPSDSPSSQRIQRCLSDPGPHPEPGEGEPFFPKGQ

Turning to `N#Cc1ccccc1C(=O)N1CCC(c2ccc(C(=O)NC(=N)N)cc2C(F)(F)F)CC1` [N-{4-[1-(2-Cyano-benzoyl)-piperidin-4-yl]-3-trifluoromethyl-benzoyl}-guanidine], the IC50 worked out at 62 nM.

Consider `CC(C)CC(N)C(=O)N1CCC(c2ccc(C(=O)NC(=N)N)cc2C(F)(F)F)CC1` (stereo not shown) [N-{4-[1-(2-Amino-4-methyl-pentanoyl)-piperidin-4-yl]-3-trifluoromethyl-benzoyl}-guanidine], for which the IC50 amounted to 40 nM.

As to `N=C(N)NC(=O)c1ccc(C2CCN(C(=O)c3ccc(-n4ccnc4)nc3)CC2)c(C(F)(F)F)c1` [N-{4-[1-(6-Imidazol-1-yl-pyridine-3-carbonyl)-piperidin-4-yl]-3-trifluoromethyl-benzoyl}-guanidine], the IC50 was found to be 14 nM. To `N=C(N)NC(=O)c1ccc(C2CCN(C(=O)C(N)CC(N)=O)CC2)c(C(F)(F)F)c1` (stereo not shown) [3-Amino-4-[4-(4-guanidinocarbonyl-2-trifluoromethyl-phenyl)-piperidin-1-yl]-4-oxo-butyramide] belongs 15 nM; to `N=C(N)NC(=O)c1ccc(C2CCN(C(=O)c3ccc(O)nc3)CC2)c(C(F)(F)F)c1` [N-{4-[1-(6-Hydroxy-pyridine-3-carbonyl)-piperidin-4-yl]-3-trifluoromethyl-benzoyl}-guanidine], 21 nM. For `N=C(N)NC(=O)c1ccc(C2CCN(C(=O)c3cccc(C(F)(F)F)c3)CC2)c(C(F)(F)F)c1` [N-{3-Trifluoromethyl-4-[1-(3-trifluoromethyl-benzoyl)-piperidin-4-yl]-benzoyl}-guanidine], the IC50 turned out to be 250 nM. To `CN1CCCC(C(=O)N2CCC(c3ccc(C(=O)NC(=N)N)cc3C(F)(F)F)CC2)C1` (stereo not shown) [N-{4-[1-(1-Methyl-piperidine-3-carbonyl)-piperidin-4-yl]-3-trifluoromethyl-benzoyl}-guanidine] belongs 10 nM; to `CS(=O)(=O)c1cc(C(=O)NC(=N)N)ccc1C1CCN(C(=O)c2ccc(F)cc2)CC1` [N-{4-[1-(4-Fluoro-benzoyl)-piperidin-4-yl]-3-methanesulfonyl-benzoyl}-guanidine], 18 nM. To `N=C(N)NC(=O)c1ccc(C2CCN(C(=O)C3(N)CCS(=O)(=O)CC3)CC2)c(C(F)(F)F)c1` [N-{4-[1-(4-Amino-1,1-dioxo-hexahydro-g-thiopyran-4-carbonyl)-piperidin-4-yl]-3-trifluoromethyl-benzoyl}-guanidine] belongs 11 nM; to `N=C(N)NC(=O)c1ccc(C2CCN(C(=O)c3cccc(S(=O)(=O)C(F)(F)F)c3)CC2)c(C(F)(F)F)c1` [N-{4-[1-(3-Trifluoromethanesulfonyl-benzoyl)-piperidin-4-yl]-3-trifluoromethyl-benzoyl}-guanidine], 280 nM. Under `COc1cccc(C(=O)N2CCC(c3ccc(C(=O)NC(=N)N)cc3C(F)(F)F)CC2)c1OC` [N-{4-[1-(2,3-Dimethoxy-benzoyl)-piperidin-4-yl]-3-trifluoromethyl-benzoyl}-guanidine] stands 46 nM. As to `N=C(N)NC(=O)c1ccc(C2CCN(C(=O)C3CCCN3)CC2)c(C(F)(F)F)c1` (stereo not shown) [N-{4-[1-(Pyrrolidine-2-carbonyl)-piperidin-4-yl]-3-trifluoromethyl-benzoyl}-guanidine], the half-inhibitory concentration (IC50) turned out to be 11 nM. For the molecule `N=C(N)NC(=O)c1ccc(C2CCN(C(=O)C3CCNCC3)CC2)c(C(F)(F)F)c1` [N-{4-[1-(Piperidine-4-carbonyl)-piperidin-4-yl]-3-trifluoromethyl-benzoyl}-guanidine], the IC50 stood at 6 nM. As for `N=C(N)NC(=O)c1ccc(C2=CCN(C(=O)c3cnc[nH]3)CC2)c(C(F)(F)F)c1` [N-{4-[1-(3H-Imidazole-4-carbonyl)-1,2,3,6-tetrahydro-pyridin-4-yl]-3-trifluoromethyl-benzoyl}-guanidine], the half-maximal inhibitory concentration (IC50) was found to be 26 nM. Under `Cc1cc(C2CCN(C(=O)c3cc4ccccc4[nH]3)CC2)c(C(F)(F)F)cc1C(=O)NC(=N)N` [N-{4-[1-(1H-Indole-2-carbonyl)-piperidin-4-yl]-2-methyl-5-trifluoromethyl-benzoyl}-guanidine] stands 290 nM.

For `N=C(N)NC(=O)c1ccc(C2CCN(C(=O)c3ccc(Cl)c(S(N)(=O)=O)c3)CC2)c(C(F)(F)F)c1` [2-Chloro-5-[4-(4-guanidinocarbonyl-2-trifluoromethyl-phenyl)-piperidine-1-carbonyl]-benzenesulfonamide], the IC50 amounted to 13 nM. To `N=C(N)NC(=O)c1ccc(C2CCN(C(=O)C(N)CO)CC2)c(C(F)(F)F)c1` (stereo not shown) [N-{4-[1-(2-Amino-3-hydroxy-propionyl)-piperidin-4-yl]-3-trifluoromethyl-benzoyl}-guanidine] belongs 5 nM; to `N=C(N)NC(=O)c1ccc(C2CCN(C(=O)c3cccc(-n4cccn4)c3)CC2)c(C(F)(F)F)c1` [N-{4-[1-(3-Pyrazol-1-yl-benzoyl)-piperidin-4-yl]-3-trifluoromethyl-benzoyl}-guanidine], 150 nM; to `N=C(N)NC(=O)c1ccc(C2CCN(C(=O)c3ccc(N4CCCC4)nc3)CC2)c(C(F)(F)F)c1` [N-{4-[1-(6-Pyrrolidin-1-yl-pyridine-3-carbonyl)-piperidin-4-yl]-3-trifluoromethyl-benzoyl}-guanidine], 75 nM. Under `N#Cc1ccc(CC(N)C(=O)N2CCC(c3ccc(C(=O)NC(=N)N)cc3C(F)(F)F)CC2)cc1` (stereo not shown) [N-(4-{1-[2-Amino-3-(4-cyano-phenyl)-propionyl]-piperidin-4-yl}-3-trifluoromethyl-benzoyl)-guanidine] stands 58 nM. On to `N=C(N)NC(=O)c1ccc(C2CCN(C(=O)c3ccc4ncsc4c3)CC2)c(C(F)(F)F)c1` [N-{4-[1-(Benzothiazole-6-carbonyl)-piperidin-4-yl]-3-trifluoromethyl-benzoyl}-guanidine], for which the IC50 stood at 114 nM. Take `COc1cccc(C(=O)N2CCC(c3ccc(C(=O)NC(=N)N)cc3C(F)(F)F)CC2)c1` [N-{4-[1-(3-Methoxy-benzoyl)-piperidin-4-yl]-3-trifluoromethyl-benzoyl}-guanidine]: the IC50 amounted to 106 nM. To `N=C(N)NC(=O)c1ccc(C2CCN(C(=O)c3ccncc3)CC2)c(C(F)(F)F)c1` [N-{4-[1-(Pyridine-4-carbonyl)-piperidin-4-yl]-3-trifluoromethyl-benzoyl}-guanidine] belongs 9 nM; to `CN(C)c1ccc(C(=O)N2CCC(c3ccc(C(=O)NC(=N)N)cc3C(F)(F)F)CC2)cc1` [N-{4-[1-(4-Dimethylamino-benzoyl)-piperidin-4-yl]-3-trifluoromethyl-benzoyl}-guanidine], 180 nM. Regarding `CS(=O)(=O)c1ccc(C(=O)N2CCC(c3ccc(C(=O)NC(=N)N)cc3C(F)(F)F)CC2)c(Cl)c1` [N-{4-[1-(2-Chloro-4-methanesulfonyl-benzoyl)-piperidin-4-yl]-3-trifluoromethyl-benzoyl}-guanidine], the IC50 stood at 60 nM.

For the molecule `N=C(N)NC(=O)c1ccc(C2CCN(C(=O)c3cnc4ccccc4c3)CC2)c(C(F)(F)F)c1` [N-{4-[1-(Quinoline-3-carbonyl)-piperidin-4-yl]-3-trifluoromethyl-benzoyl}-guanidine], the IC50 stood at 70 nM. Under `N=C(N)NC(=O)c1ccc(C2CCN(C(=O)c3ccc(S(=O)(=O)C(F)(F)F)cc3)CC2)c(C(F)(F)F)c1` [N-{4-[1-(4-Trifluoromethanesulfonyl-benzoyl)-piperidin-4-yl]-3-trifluoromethyl-benzoyl}-guanidine] stands 230 nM; under `Cc1cc(C2CCN(C(=O)c3ccc(S(C)(=O)=O)cc3)CC2)c(C(F)(F)F)cc1C(=O)NC(=N)N` [N-{4-[1-(4-Methanesulfonyl-benzoyl)-piperidin-4-yl]-2-methyl-5-trifluoromethyl-benzoyl}-guanidine], 20 nM; under `CCCC(=O)N1CCC(c2ccc(C(=O)NC(=N)N)cc2C(F)(F)F)CC1` [N-[4-(1-Butyryl-piperidin-4-yl)-3-trifluoromethyl-benzoyl]-guanidine], 30 nM. To `CNC(=O)c1ccc(C(=O)N2CCC(c3ccc(C(=O)NC(=N)N)cc3C(F)(F)F)CC2)cc1` [4-[4-(4-Guanidinocarbonyl-2-trifluoromethyl-phenyl)-piperidine-1-carbonyl]-N-methyl-benzamide] belongs 43 nM; to `CN(C)C(=O)c1ccc(C(=O)N2CCC(c3ccc(C(=O)NC(=N)N)cc3C(F)(F)F)CC2)cc1` [4-[4-(4-Guanidinocarbonyl-2-trifluoromethyl-phenyl)-piperidine-1-carbonyl]-N,N-dimethyl-benzamide], 48 nM. To `Cc1cc(C2CCN(C(=O)c3ccc(F)cc3)CC2)c(C(F)(F)F)cc1C(=O)NC(=N)N` [N-{4-[1-(4-Fluoro-benzoyl)-piperidin-4-yl]-2-methyl-5-trifluoromethyl-benzoyl}-guanidine] belongs 7 nM; to `N=C(N)NC(=O)c1ccc(C2CCN(C(=O)CCN)CC2)c(C(F)(F)F)c1` [N-{4-[1-(3-Amino-propionyl)-piperidin-4-yl]-3-trifluoromethyl-benzoyl}-guanidine], 8 nM. For `Cc1cc(C2CCN(C(=O)CN3CCCC3=O)CC2)c(C(F)(F)F)cc1C(=O)NC(=N)N` [N-(2-Methyl-4-{1-[2-(2-oxo-pyrrolidin-1-yl)-acetyl]-piperidin-4-yl}-5-trifluoromethyl-benzoyl)-guanidine], the IC50 was found to be 37 nM. In the case of `CSCCC(N)C(=O)N1CCC(c2ccc(C(=O)NC(=N)N)cc2C(F)(F)F)CC1` (stereo not shown) [N-{4-[1-(2-Amino-4-methylsulfanyl-butyryl)-piperidin-4-yl]-3-trifluoromethyl-benzoyl}-guanidine], the IC50 turned out to be 13 nM.

As for `N=C(N)NC(=O)c1ccc(C2CCN(C(=O)CN)CC2)c(C(F)(F)F)c1` [N-{4-[1-(2-Amino-acetyl)-piperidin-4-yl]-3-trifluoromethyl-benzoyl}-guanidine], the IC50 worked out at 4 nM.

For `N=C(N)NC(=O)c1ccc(C2CCN(C(=O)c3ccc(Cl)cc3)CC2)c(C(F)(F)F)c1` [N-{4-[1-(4-Chloro-benzoyl)-piperidin-4-yl]-3-trifluoromethyl-benzoyl}-guanidine], the IC50 came out at 320 nM.
